Reference: patent US12479847B2 (DANA-FARBER CANCER INSTITUTE, INC., priority 2019, dated 2025)

Key:
Assay in all cases: KINOMEscan (ScanMAX) kinase profiling
Type in all cases: binding
panel of 468 kinases [1] = target: T1, panel of 468 kinases (Homo sapiens, UniProt P36888, D835H); settings: FLT3(D835H); 1 μM; read-out: % control
T1 construct: purchased KINOMEscan (ScanMAX) service
T1 sequence (P36888 27-993 D835H): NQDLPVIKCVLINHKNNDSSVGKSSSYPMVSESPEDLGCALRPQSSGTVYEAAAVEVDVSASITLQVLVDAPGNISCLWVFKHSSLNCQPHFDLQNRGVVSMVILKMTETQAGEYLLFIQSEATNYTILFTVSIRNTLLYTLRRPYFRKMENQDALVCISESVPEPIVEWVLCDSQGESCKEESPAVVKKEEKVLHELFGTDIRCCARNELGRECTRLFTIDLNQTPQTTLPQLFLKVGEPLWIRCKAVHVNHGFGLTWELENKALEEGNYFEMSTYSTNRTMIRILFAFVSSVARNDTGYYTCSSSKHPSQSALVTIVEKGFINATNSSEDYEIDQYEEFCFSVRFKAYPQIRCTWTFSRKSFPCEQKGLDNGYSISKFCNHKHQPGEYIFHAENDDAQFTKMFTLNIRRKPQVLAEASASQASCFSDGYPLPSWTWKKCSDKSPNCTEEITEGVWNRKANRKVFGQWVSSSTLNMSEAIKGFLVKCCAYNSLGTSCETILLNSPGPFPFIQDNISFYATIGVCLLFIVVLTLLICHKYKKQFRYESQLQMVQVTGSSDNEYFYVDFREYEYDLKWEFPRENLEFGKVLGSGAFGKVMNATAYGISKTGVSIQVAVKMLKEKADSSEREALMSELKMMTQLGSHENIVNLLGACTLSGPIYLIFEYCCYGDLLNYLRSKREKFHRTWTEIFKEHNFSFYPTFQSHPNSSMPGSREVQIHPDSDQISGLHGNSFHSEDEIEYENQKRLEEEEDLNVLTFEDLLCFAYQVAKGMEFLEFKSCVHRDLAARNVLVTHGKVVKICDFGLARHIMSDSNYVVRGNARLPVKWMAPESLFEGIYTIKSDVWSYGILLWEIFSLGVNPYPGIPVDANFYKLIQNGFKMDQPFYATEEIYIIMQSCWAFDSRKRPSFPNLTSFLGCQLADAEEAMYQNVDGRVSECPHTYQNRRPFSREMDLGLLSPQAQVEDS

panel of 468 kinases [2] = target: T2, panel of 468 kinases (Homo sapiens, UniProt Q9UM73, L1196M); settings: ALK(L1196M); 1 μM; read-out: % control
T2 construct: purchased KINOMEscan (ScanMAX) service

panel of 468 kinases [3] = target: T3, panel of 468 kinases (Homo sapiens, UniProt P16234); settings: PDGFRA; 1 μM; read-out: % control
T3 construct: purchased KINOMEscan (ScanMAX) service

panel of 468 kinases [4] = target: T4, panel of 468 kinases (Homo sapiens, UniProt P45985); settings: MEK4; 1 μM; read-out: % control
T4 construct: purchased KINOMEscan (ScanMAX) service
T4 sequence (P45985 1-399): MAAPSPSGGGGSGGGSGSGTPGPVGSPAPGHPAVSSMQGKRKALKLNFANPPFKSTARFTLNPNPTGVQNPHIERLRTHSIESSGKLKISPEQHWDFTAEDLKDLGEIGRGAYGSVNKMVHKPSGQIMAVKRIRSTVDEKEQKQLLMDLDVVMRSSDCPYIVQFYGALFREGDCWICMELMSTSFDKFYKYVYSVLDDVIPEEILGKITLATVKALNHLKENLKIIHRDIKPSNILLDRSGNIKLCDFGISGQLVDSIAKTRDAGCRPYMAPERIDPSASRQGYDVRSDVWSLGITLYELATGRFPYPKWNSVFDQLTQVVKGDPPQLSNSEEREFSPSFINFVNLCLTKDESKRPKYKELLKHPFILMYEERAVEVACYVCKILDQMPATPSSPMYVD

panel of 468 kinases [5] = target: T5, panel of 468 kinases (Homo sapiens, UniProt Q8N5S9); settings: CAMKK1; 1 μM; read-out: % control
T5 construct: purchased KINOMEscan (ScanMAX) service

panel of 468 kinases [6] = target: T6, panel of 468 kinases (Homo sapiens, UniProt Q9Y3S1); settings: WNK2; 1 μM; read-out: % control
T6 construct: purchased KINOMEscan (ScanMAX) service

panel of 468 kinases [7] = target: T7, panel of 468 kinases (Homo sapiens, UniProt O14578); settings: CIT; 1 μM; read-out: % control
T7 construct: purchased KINOMEscan (ScanMAX) service

panel of 468 kinases [8] = target: T8, panel of 468 kinases (Homo sapiens, UniProt Q13164); settings: ERK5; 1 μM; read-out: % control
T8 construct: purchased KINOMEscan (ScanMAX) service
T8 sequence (Q13164 whole entry): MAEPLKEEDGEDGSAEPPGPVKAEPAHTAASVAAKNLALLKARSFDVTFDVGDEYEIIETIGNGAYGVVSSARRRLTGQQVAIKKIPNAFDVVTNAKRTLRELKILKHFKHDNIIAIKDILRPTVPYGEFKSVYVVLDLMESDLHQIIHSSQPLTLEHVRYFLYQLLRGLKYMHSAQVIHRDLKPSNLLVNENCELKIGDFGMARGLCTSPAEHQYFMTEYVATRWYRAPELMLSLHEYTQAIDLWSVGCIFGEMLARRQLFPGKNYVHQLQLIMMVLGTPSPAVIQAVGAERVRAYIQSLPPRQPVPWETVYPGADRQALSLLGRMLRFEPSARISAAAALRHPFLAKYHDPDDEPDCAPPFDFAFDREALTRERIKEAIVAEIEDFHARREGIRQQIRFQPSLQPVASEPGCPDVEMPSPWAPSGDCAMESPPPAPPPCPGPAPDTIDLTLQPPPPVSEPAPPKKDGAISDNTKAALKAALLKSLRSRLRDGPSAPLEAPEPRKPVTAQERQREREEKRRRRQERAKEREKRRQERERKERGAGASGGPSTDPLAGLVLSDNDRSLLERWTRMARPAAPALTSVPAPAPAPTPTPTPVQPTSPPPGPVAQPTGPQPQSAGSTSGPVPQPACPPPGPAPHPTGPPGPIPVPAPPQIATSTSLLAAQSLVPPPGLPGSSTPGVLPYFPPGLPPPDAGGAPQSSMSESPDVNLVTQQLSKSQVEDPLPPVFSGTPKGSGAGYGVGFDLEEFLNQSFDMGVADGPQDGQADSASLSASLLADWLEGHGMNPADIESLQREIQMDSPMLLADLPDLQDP

T5 sequence (Q8N5S9 whole entry): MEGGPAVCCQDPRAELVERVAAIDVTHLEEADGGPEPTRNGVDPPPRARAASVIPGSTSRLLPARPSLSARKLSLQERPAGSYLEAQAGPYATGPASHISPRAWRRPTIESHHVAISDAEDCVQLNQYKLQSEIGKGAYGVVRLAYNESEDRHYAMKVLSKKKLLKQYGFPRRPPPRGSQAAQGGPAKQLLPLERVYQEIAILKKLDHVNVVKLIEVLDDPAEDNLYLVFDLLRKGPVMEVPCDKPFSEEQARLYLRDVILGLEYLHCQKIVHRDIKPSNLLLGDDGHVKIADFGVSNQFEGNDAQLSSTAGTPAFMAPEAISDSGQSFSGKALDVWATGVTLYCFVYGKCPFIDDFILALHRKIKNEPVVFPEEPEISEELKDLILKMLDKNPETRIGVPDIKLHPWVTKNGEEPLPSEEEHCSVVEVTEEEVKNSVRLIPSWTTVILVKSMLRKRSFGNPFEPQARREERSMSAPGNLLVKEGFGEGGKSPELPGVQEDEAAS
T3 sequence (P16234 24-1089): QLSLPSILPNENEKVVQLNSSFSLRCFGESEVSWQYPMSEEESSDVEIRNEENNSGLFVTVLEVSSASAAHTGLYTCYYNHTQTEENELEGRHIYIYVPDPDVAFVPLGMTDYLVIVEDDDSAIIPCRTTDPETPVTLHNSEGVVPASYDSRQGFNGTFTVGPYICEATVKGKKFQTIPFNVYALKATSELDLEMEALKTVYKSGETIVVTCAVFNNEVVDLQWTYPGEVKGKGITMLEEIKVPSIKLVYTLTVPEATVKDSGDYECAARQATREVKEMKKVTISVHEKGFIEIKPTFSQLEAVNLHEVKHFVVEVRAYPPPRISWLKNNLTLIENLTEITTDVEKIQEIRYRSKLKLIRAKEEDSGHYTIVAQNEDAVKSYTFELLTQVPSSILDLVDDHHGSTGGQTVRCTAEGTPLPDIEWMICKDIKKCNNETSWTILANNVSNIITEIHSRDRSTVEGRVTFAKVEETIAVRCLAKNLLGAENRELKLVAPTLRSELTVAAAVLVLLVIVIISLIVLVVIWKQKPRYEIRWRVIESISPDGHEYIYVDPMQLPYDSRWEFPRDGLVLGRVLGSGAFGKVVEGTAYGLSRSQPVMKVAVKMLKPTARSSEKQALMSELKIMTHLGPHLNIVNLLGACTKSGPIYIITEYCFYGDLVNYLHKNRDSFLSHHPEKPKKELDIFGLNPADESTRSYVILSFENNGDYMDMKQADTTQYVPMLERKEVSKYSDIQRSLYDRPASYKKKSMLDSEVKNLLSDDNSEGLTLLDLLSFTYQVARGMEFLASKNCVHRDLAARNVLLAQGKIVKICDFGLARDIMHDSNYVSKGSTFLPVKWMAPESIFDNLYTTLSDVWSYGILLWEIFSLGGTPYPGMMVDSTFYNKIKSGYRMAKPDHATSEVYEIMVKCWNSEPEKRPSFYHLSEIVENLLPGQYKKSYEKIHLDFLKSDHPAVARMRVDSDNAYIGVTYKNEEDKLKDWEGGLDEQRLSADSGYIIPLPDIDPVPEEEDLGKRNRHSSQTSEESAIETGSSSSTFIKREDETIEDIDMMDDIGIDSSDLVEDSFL
T6 sequence (Q9Y3S1 whole entry): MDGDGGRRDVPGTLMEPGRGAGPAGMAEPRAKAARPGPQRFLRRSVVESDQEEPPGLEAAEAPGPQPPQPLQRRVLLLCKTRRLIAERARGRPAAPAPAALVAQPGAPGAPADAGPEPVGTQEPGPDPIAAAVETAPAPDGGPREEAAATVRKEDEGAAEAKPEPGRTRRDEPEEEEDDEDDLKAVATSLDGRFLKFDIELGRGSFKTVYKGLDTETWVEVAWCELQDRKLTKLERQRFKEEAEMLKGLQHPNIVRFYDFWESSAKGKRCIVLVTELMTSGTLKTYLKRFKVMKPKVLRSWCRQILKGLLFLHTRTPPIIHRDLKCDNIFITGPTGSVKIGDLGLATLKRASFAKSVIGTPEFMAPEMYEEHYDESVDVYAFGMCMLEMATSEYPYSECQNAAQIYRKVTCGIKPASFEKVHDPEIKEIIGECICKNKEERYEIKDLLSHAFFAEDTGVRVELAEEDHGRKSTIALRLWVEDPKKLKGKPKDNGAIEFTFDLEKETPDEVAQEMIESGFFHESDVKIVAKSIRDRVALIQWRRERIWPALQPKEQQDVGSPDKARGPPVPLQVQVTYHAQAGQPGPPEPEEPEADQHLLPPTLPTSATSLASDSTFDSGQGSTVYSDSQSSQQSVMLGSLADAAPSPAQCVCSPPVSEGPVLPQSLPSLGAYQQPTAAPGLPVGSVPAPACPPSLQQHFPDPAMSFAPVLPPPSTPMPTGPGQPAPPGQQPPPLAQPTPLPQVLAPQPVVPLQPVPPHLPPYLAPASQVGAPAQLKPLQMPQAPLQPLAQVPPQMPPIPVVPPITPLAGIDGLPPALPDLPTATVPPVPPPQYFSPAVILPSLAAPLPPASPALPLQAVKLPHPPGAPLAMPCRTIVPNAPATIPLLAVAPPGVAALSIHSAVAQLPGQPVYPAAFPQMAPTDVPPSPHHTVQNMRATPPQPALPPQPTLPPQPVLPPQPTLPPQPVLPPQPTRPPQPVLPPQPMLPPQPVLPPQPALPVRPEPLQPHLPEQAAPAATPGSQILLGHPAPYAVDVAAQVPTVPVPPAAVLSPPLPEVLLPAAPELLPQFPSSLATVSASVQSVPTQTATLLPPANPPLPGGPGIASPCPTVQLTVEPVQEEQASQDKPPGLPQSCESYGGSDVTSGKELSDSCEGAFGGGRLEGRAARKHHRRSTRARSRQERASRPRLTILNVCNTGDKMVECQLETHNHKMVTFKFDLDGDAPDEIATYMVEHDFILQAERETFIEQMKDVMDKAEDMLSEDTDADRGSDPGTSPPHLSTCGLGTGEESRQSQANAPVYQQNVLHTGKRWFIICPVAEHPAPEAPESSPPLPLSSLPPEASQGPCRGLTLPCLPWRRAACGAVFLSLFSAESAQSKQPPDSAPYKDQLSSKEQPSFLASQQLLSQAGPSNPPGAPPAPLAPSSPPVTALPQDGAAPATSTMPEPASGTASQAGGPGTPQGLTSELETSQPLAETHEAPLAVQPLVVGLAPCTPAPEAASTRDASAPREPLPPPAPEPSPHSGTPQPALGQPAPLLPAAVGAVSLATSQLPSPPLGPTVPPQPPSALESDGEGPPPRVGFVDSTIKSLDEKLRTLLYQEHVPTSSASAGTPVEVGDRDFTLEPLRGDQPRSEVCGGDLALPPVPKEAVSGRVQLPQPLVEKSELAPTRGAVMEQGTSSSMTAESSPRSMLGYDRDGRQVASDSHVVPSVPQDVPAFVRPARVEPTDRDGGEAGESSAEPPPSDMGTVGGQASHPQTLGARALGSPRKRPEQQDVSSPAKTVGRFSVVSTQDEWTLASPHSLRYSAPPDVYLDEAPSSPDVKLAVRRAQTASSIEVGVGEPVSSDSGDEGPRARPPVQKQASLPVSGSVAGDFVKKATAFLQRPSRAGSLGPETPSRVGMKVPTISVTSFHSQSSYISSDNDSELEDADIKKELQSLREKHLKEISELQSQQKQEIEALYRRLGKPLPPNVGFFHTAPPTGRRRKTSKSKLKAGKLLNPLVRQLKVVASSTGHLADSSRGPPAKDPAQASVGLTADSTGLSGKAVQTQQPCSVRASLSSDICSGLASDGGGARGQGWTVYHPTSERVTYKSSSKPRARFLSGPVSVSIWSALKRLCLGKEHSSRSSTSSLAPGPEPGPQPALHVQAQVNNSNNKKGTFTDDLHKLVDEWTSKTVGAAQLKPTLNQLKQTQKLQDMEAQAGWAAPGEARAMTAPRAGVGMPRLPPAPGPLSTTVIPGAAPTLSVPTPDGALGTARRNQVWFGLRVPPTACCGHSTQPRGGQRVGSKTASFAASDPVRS

SMILES	remaining binding at 1 µM (panel of 468 kinases [1])	remaining binding at 1 µM (panel of 468 kinases [2])	remaining binding at 1 µM (panel of 468 kinases [3])	remaining binding at 1 µM (panel of 468 kinases [4])	remaining binding at 1 µM (panel of 468 kinases [5])	remaining binding at 1 µM (panel of 468 kinases [6])	remaining binding at 1 µM (panel of 468 kinases [7])	remaining binding at 1 µM (panel of 468 kinases [8])
CNc1nc(Nc2ccc(S(=O)(=O)N3CCC(N4CCOCC4)CC3)cc2OC)nc2[nH]cc(Cl)c12 [Compound 12, 5-chloro-N2-(2-methoxy-4-((4-morpholinopiperidin-1-yl)sulfonyl)phenyl)-N4-methyl-7H-pyrrolo[2,3-d]pyrimidine-2,4-diamine]	100%	11%	77%	26%	100%	62%	85%	53%
CNc1nc(Nc2ccc(P3(=O)CCN(C4CCOCC4)CC3)cc2OC)nc2[nH]cc(Cl)c12 [Compound 77, 4-(4-((5-chloro-4-(methylamino)-7H-pyrrolo[2,3-d]pyrimidin-2-yl)amino)-3-methoxyphenyl)-1-(tetrahydro-2H-pyran-4-yl)-1,4-azaphosphinane 4-oxide]	84%	7.1%	69%	4.7%	83%	71%	93%	78%
CNc1nc(Nc2ccc(C(=O)N3CCC(N4CCOCC4)CC3)c3c2OCO3)nc2[nH]cc(Cl)c12 [Compound 75, (7-((5-chloro-4-(methylamino)-7H-pyrrolo[2,3-d]pyrimidin-2-yl)amino)benzo[d][1,3]dioxol-4-yl)(4-morpholinopiperidin-1-yl)methanone]	37%	27%	67%	0.05%	95%	69%	35%	51%
